Laboratory results taken from publication PMC7463999, “Antioxidant, Anti-inflammatory and Neuroprotective Profiles of Novel 1,4-Dihydropyridine Derivatives for the Treatment of Alzheimer’s Disease” (Antioxidants, 2020).
Several values for one entry are separate records, joined by “and”; a condition that tells them apart may be missing. Equal entries are not always repeated. Where two headings read alike, the source gives them in different places.

Key:
[1] = test system: neuroblastoma cell line SH-SY5Y; assay: Cytotoxicity (neurotoxicity) in SH-SY5Y, MTT; conditions: 24 h
Procedure: (§1) LD50 in SH-SY5Y and primary glial culture cells
(§2) cell line SH-SY5Y and primary glial cultures. Viability was measured as
(§3) MTT reduction in presence of increasing concentrations of derivatives.
(§4) Values are expressed as LD50 calculated from dose-response curves of four
(§5) different concentrations. Data are expressed as mean  SEM of five
different experiments in triplicate.
(§6) SH-SY5Y or primary glial cells were cultured in 96-well plates for 24 h. Then, cells
(§7) were treated with the compounds at 10, 30 and 100 µM in the corresponding culture media
(§8) with 1 % FBS After 24 h, cell viability was assessed by the MTT-reduction assay. Control
(§9) cells were incubated with the same concentration of DMSO (0.1 % final concentration)
Viability assay by MTT-reduction
(§10) SH-SY5Y, primary glial culture cells and rat hippocampal slices viability was
(§11) measured by the MTT assay [11]. This method is based on the cleavage of the tetrazolium
(§12) ring of MTT by active dehydrogenases, generating a formazan precipitate. At the end of
(§13) the neuroprotection or toxicity experiments, an MTT solution was added to each well to
(§14) reach a final concentration of 0.5 mg/mL. After 2 additional hours of incubation, the
(§15) solution was replaced by 100 or 300 µL of DMSO to solubilize the formazan precipitate.
(§16) in control cells was considered as 100 % of cell survival and used to reference all

[2] = Blood-brain barrier permeation assay (PAMPA), porcine brain lipid; format: in vitro ADME; conditions: for PAMPA Prediction: BBB permeability class from Pe; for Prediction of the BBB passive permeability: PAMPA control compounds
[3] = test system: blood-brain barrier (passive diffusion); assay: as above; format: in vitro ADME
[4] = Oxygen Radical Absorbance Capacity (ORAC) assay; conditions: Trolox equivalents, ORAC of Trolox = 1.0; AAPH, fluorescein
primary glial cultures [5] = assay: Cytotoxicity (gliotoxicity) in primary glial cultures, MTT; conditions: 24 h
Procedure: as §2, §3, §4, §5
different experiments in triplicate.
(§17) Mixed glial cultures were obtained from cerebral cortex of 2-5-day-old Sprague-Dawley rats. After removal of blood vessels and meninges, the forebrains were dissociated in DMEM/F12 medium. After mechanical dissociation, cells were plated (3x10^5 cells/ml) in DMEM/F12 medium with 20 % fetal bovine serum (FBS) and 1 % penicillin/streptomycin (10,000 units), at 37 °C and in a 5 % CO2-supplemented air atmosphere. After 5 days, medium was substituted by DMEM/F12 medium with 10 %
(§18) FBS. Cells were cultured for 7-10 days before treatment.
as §6, §7, §8, §9
Viability assay by MTT-reduction
as §10
measured by the MTT assay [11].

DPPH reduction assay = conditions: DPPH 100 µM, 1 h in the dark
Procedure: The final solution was incubated during 1 h in the dark. […] Results are expressed as a percentage of DPPH reduction by subtracting blank absorbance (Absblank) to sample absorbance (Abssample) and corrected by control absorbance, (Abscontrol, DPPH alone, as expressed below: % DPPH reduction = [100 − ((Abssample − Absblank) × 100/Abscontrol)](1)
Briefly, the compounds under assay (150 µL) at the desired concentration (1, 10, 60 and 100 µM) in methanol/water (80/20) were added to a solution of DPPH in methanol/water (80/20) (150 µL, 100 µM), in a clear bottom 96-well plate, and the final solution was incubated 1 h in the dark. Then, DPPH absorbance of blank (methanol/water), control
Optima plate-reader (BMG Labtech, Ortenberg, Germany) in duplicate.
Results are expressed as % of absorbance (Abs) reduction of control after subtracting blank absorbance, as expressed
% DPPH reduction = [100 – (Abssample-Absblank) x 100]/Abscontrol

[6] = test system: primary glial cultures stimulated with LPS; assay: Nitrite production reduction (Griess) in LPS-stimulated mixed primary glial cultures; format: cell-based, rat; conditions: Rattus norvegicus; LPS 1 μg/mL, 24 h pre-incubation, 18 h co-incubation
[7] = test system: voltage-dependent Ca^2+ channels (VDCC); assay: Voltage dependent calcium channels blockade assay (Fluo-4, 70 mM K+); format: cell-based, human; conditions: compounds at 10 μM, SH-SY5Y, basal = 100% response
Procedure: Free cytosolic Ca^2+ was measured using the fluorescence Ca^2+ indicator Fluo-4/AM. SH-SY5Y cells were seeded in 96-well black bottom transparent plates at a density of 60,000 cells per well and cultured until they reach confluence. Cells were incubated with the Ca^2+ sensitive dye Fluo-4/AM at 5 µM in Krebs-HEPES buffer (KH) (145 mM NaCl, 4.9 mM KCl, 1.2 mM MgCl2, 2 mM CaCl2, 10 mM HEPES, 11 mM glucose, pH 7.4), and 0.05% pluronic acid, for 1 h at 37 °C in the dark. Then, cells were washed twice with KH solution to remove the excess of probe and compounds in solution were added. Test compounds at 10 µM were incubated 10 min before K^+ 70 mM was applied to trigger cytosolic Ca^2+ increase. Fluorescence was measured in a fluorescence microplate reader (FLUOstar Optima, BMG, Ortenberg, Baden-Wuerttemberg, Germany) at excitation and emission wavelengths 485 and 520 nm, respectively. To normalize Fluo-4 signals, Triton X-100 (5%) and subsequently MnCl2 1 M were applied to the cells to register maximal and minimal fluorescence, respectively. Data were calculated as a percentage of Fluorescence increment with respect to Fmax − Fmin. The percentage of response was calculated considering basal conditions as 100% response.
Voltage dependent Calcium Channel Blockade Assay
Free cytosolic Ca2+ was measured using the fluorescence Ca2+ indicator Fluo-4/AM.
SH-SY5Y cells were seeded in 96-well black bottom transparent plates at a density of 60,000 cells per well until reaching confluence. Cells were incubated with the Ca2+ sensitive dye fluo-4 AM at 5 µM in Krebs-Hepes buffer (KH) (145 mM NaCl, 4.9 mM KCl, 1.2 mM MgCl2, 2 mM CaCl2, 10 mM HEPES, 11 mM glucose, pH 7.4), and 0.05 % pluronic acid, for 1 h at 37 °C in the dark. Then, cells were washed twice with KH solution to remove the excess of probe and compounds in solution were added. Tested compounds at 10 µM were incubated 10 min before K+ 70 mM was applied to evoke the increment of cytosolic Ca2+. The experiments were analyzed at excitation and emission wavelengths of 485 and 520 nm, respectively, and fluorescence was measured in a fluorescence microplate reader (FLUOstar Optima, BMG, Germany). To normalize Fluo-4 signals, Triton X-100 (5 %) and subsequently MnCl2 1 M were applied to cells for registering both maximal and minimal fluorescence, respectively. Data were calculated as % F increment respect to Fmax – Fmin. % of blockade was calculated considering basal conditions as 100 % response.
Then, the donor filter plate was carefully put on the acceptor plate to form a “sandwich”, which was left undisturbed for 4 h at 25 °C. During this time, the compounds diffused from the donor plate through the polar brain lipid membrane (area = 0.28 cm2) into the acceptor plate. After incubation, the donor plate was carefully removed. UV plate reader determined the concentration of compounds and commercial drugs in both acceptor and […]

[8] = test system: SH-SY5Y human neuroblastoma cells; assay: Neuroprotection against rotenone/oligomycin A (oxidative stress), MTT; conditions: 1 μM, rotenone 30 μM / oligomycin A 10 μM, 24 h; for percentage of survival, R/O toxicity: basal = 100%
Procedure: (§19) Cells were pre-incubated with the corresponding compound at 1 μM in neuroblastoma culture medium. After 24 h, the medium was removed and replaced with 1% FBS neuroblastoma culture media containing the corresponding compound at 1 µM and the toxic stimuli, namely a mixture of rotenone and oligomycin A (R/O, 30 μM/10 μM, respectively), okadaic acid (OA) at 20 nM or a high concentration of KCl (70 mM). Cells were co-incubated for further 24 h with the R/O mixture or KCl solution, or 18 h with the OA solution. […] Control cells were incubated with the same amount of dimethyl sulfoxide (DMSO) without any drug. After the co-incubation period, cell viability was assessed by the 3-(4,5-dimethylthiazol-2-yl)-2,5-diphenyltetrazolium bromide (MTT) reduction method [56]; basal condition was considered as 100% survival.
(§20) Neuroprotection in the SH-SY5Y neuroblastoma cell line
(§21) A pre- and co-incubation protocol was followed. Cells were pre-incubated with the
(§22) corresponding compound at 1 M in neuroblastoma culture medium. After 24 h, the
(§23) medium was removed and replaced with 1% FBS neuroblastoma culture media
(§24) containing the corresponding compound at 1 µM and the toxic stimuli, namely a mixture
(§25) of rotenone and oligomycin A (30 M/10 M respectively), okadaic acid at 20 nM or a
(§26) high concentration of potassium chloride (70 mM). Cells were co-incubated for further
(§27) 24 h with the rotenone and oligomycin A or potassium chloride solution, or 18 h with the
(§28) okadaic acid solution. Control cells were incubated with the same amount of DMSO
(§29) and reference compounds in the rotenone-oligomycin A, okadaic acid or high
(§30) concentration of potassium models respectively. After the co-incubation period, cell
(§31) viability was assessed by the MTT-reduction method [11] considering basal conditions
Viability assay by MTT-reduction
as §10, §11, §12, §13, §14, §15, §16
(§32) treatments. The percentage of protection was calculated as follows: the percentage of cell
(§33) survival obtained with the toxic stimuli-treated cells subtracted to 100 was normalized to
(§34) 100 % of cell death. The percentage of protection was obtained by subtracting the
(§35) percentage of cell death in presence of the tested compound to 100 %.

GSK-3β = GSK-3β (Homo sapiens, UniProt P49841); assay: GSK-3β inhibition, Kinase-Glo luminescence assay
[9] = test system: SH-SY5Y human neuroblastoma cells; assay: Neuroprotection against okadaic acid (tau hyperphosphorylation), MTT; conditions: 18 h; for percentage of protection, okadaic acid toxicity: 1 μM, OA 20 nM; for viability at 1 µM: Homo sapiens, SH-SY5Y, read-out: cell viability (percentage survival), okadaic acid toxicity
Procedure: as §19, §20, §21, §22, §23, §24, §25, §26, §27, §28, §29, §30, §31
Viability assay by MTT-reduction
as §10, §11, §12, §13, §14, §15, §16, §32, §33, §34, §35

[10] = test system: SH-SY5Y human neuroblastoma cells; assay: Neuroprotection against 70 mM K+ ([Ca2+]c overload), MTT; conditions: 1 μM, 24 h, basal = 100%
Procedure: as §19, §20, §21, §22, §23
containing the corresponding compound at 1 µM and the toxic stimuli, namely a mixture […]
viability was assessed by the MTT-reduction method [11] considering basal conditions […]
measured by the MTT assay [11]. […]
treatments. The percentage of protection was calculated as follows: the percentage of cell […]

primary glial cultures [11] = conditions: Sprague-Dawley, rat, 24 h
Procedure: as §2, §3, §4, §5
different experiments in triplicate.
as §17, §18, §6, §7, §8, §9
Viability assay by MTT-reduction
as §10
measured by the MTT assay [11].

[12] = test system: neuroblastoma cell line SH-SY5Y; conditions: human, 24 h
Procedure: as §1, §2, §3, §4, §5
different experiments in triplicate.
as §6, §7, §8, §9
Viability assay by MTT-reduction
as §10, §11, §12, §13, §14, §15, §16

rat hippocampal slices = conditions: OA 1 μM alone, 6 h
Procedure: Finally, cell viability and ROS production were measured.
After the co-incubation period, cell
as §31
Viability assay by MTT-reduction
as §10, §11, §12, §13, §14, §15, §16, §32, §33, §34, §35
Acute treatment in rat hippocampal slices
3-4 months-old Sprague-Dawley rats were beheaded and both hippocampi dissected
0.5 mM CaCl2; 11 mM glucose and 200 mM sucrose at pH 7.4). […]
All values are expressed as mean ± S.E.M. IC50 and LD50 values were calculated by […]

[13] = PAMPA, 100 µM, PBS pH 7.4, 4 h at 25 °C, mean ± SEM, read-out: PAMPA Pe
[14] = pH 7.4, PAMPA control compounds, Pe ± SD, read-out: Pe ± SD

Sequence of GSK-3β (P49841 whole entry): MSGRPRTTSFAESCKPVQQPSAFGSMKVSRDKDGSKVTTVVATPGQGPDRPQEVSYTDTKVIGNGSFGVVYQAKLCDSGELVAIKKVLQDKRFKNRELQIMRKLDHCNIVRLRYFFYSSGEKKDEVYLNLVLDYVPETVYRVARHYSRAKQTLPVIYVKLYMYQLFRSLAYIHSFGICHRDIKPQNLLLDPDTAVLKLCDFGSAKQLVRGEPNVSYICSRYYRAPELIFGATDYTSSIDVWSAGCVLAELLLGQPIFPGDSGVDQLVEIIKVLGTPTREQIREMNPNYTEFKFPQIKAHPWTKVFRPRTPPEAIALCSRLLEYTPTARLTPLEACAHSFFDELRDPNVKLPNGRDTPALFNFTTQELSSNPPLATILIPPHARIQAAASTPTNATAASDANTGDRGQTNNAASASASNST

Row | Compound | PAMPA Prediction [2] | Papp at 4 h, 100 µM [3, 13] [×10⁻⁶ cm/s] | IC50 (DPPH reduction assay) [µM] | EC50 [6] [µM] | IC50 (GSK-3β) [µM] | Ki (GSK-3β) [µM] | SH-SY5Y LD50 [1] [µM] | ORAC (T. Eq.) [4] | Glial cultures LD50 (primary glial cultures [5]) [µM] | VDCC % Response [7] | further results
1 | Cc1[nH]nc2c1C(c1ccccc1Cl)C(C#N)=C(N)N2 (stereo not drawn) [4c] | CNS+ | 9.4 ± 3.5 | 23.3 ± 2.6 | 14.4 ± 2.19 | 1.51 ± 1.1 | 1.06 | > 100 | 0.94 T. Eq. and 0.94 ± 0.04 T. Eq. | > 100 | 58.7 ± 6.8% | percentage of survival, R/O toxicity [8]: 81.3%; percentage of protection, okadaic acid toxicity [9]: over 50%; viability at 1 µM [9]: 74%
2 | Cc1[nH]nc2c1C(c1ccc(Cl)cc1)C(C#N)=C(N)N2 (stereo not drawn) [4e] | CNS+ | 12.9 ± 3.6 | 20.9 ± 5.91 | 4.4 ± 0.35 | 1.94 ± 0.5 | 1.36 | > 100 | 0.66 T. Eq. and 0.66 ± 0.07 T. Eq. | > 100 | 6.46% and 6.46 ± 1.6% | percentage of survival, R/O toxicity [8]: 73.6%; viability at 1 µM [9]: 64.6%
3 | Cc1[nH]nc2c1C(c1cccc([N+](=O)[O-])c1)C(C#N)=C(N)N2 (stereo not drawn) [4h] | CNS± | 2.1 ± 1 | 24.7 ± 4.03 | 3.5 ± 0.29 | 0.82 ± 0.2 | 0.57 | > 100 | 0.73 T. Eq. and 0.73 ± 0.09 T. Eq. | > 100 | 75.5 ± 2.7% | percentage of protection, okadaic acid toxicity [9]: 34.6%; viability at 1 µM [9]: 60.8%
4 | Cc1[nH]nc2c1C(c1cccs1)C(C#N)=C(N)N2 (stereo not drawn) [4j] | CNS+ | 8.8 ± 4.4 | 20.9 ± 4.23 | 5.4 ± 0.27 | 1.74 ± 1 | 1.22 | > 100 | 2.93 T. Eq. and 2.93 ± 0.15 T. Eq. | > 100 | 60.6 ± 6.8% | viability at 1 µM [9]: 64%; fold more potent GSK-3β inhibitor than 4l (GSK-3β; ratio of IC50 values): 5 fold
5 | O=C1O[C@H]([C@@H](O)CO)C(O)=C1O [Ascorbic ac., Ascorbic acid, reference compound] | – | – | 61.9 ± 4.96 | – | – | – | – | – | – | – | –
6 | Cn1c(=O)c2c(ncn2C)n(C)c1=O [Caffeine, reference compound] | – | – | – | – | – | – | – | – | – | – | Prediction of the BBB passive permeability [2]: CNS (-)
7 | COc1ccc2[nH]cc(CCNC(C)=O)c2c1 [Melatonin] | – | – | – | – | – | – | – | – | – | – | percentage of protection, R/O toxicity [8]: 52.5%; Glial cultures LD50 (primary glial cultures [11]): > 100 µM; SH-SY5Y LD50 [12]: > 100 µM
8 | COCCOC(=O)C1=C(C)NC(C)=C(C(=O)OC(C)C)C1c1cccc([N+](=O)[O-])c1 (stereo not drawn) [Nimodipine, reference compound] | – | – | – | – | – | – | – | – | – | 51.0 ± 2.6% | –
9 | C=C1[C@@H](O)[C@@H]2O[C@]3(CC[C@H](/C=C/[C@@H](C)[C@@H]4CC(C)=C[C@@]5(O[C@H](C[C@@](C)(O)C(=O)O)CC[C@H]5O)O4)O3)CC[C@H]2O[C@@H]1[C@@H](O)C[C@H](C)[C@H]1O[C@@]2(CCCCO2)CC[C@H]1C [OA, okadaic acid] | – | – | – | – | – | – | – | – | – | – | reduction of cell viability of hippocampal slices (rat hippocampal slices): 30%
10 | CN1C(C(=O)Nc2ccccn2)=C(O)c2ccccc2S1(=O)=O [Piroxicam, reference compound] | – | – | – | – | – | – | – | – | – | – | Prediction of the BBB passive permeability [2]: CNS (+/-); Papp at 4 h, 100 µM [3, 14]: 3.3 ± 0.1 ×10⁻⁶ cm/s
11 | CC(=O)[C@H]1CC[C@H]2[C@@H]3CCC4=CC(=O)CC[C@]4(C)[C@H]3CC[C@]12C [Progesterone, reference compound] | – | – | – | – | – | – | – | – | – | – | Prediction of the BBB passive permeability [2]: CNS (+/-); Papp at 4 h, 100 µM [3, 14]: 2.2 ± 2.8 ×10⁻⁶ cm/s

The next lines start with results.

Row | PAMPA Prediction [2] | Papp at 4 h, 100 µM [3, 13] [×10⁻⁶ cm/s] | IC50 (DPPH reduction assay) [µM] | EC50 [6] [µM] | IC50 (GSK-3β) [µM] | Ki (GSK-3β) [µM] | Compound | SH-SY5Y LD50 [1] [µM] | ORAC (T. Eq.) [4] | Glial cultures LD50 (primary glial cultures [5]) [µM] | VDCC % Response [7] | further results
12 | CNS+ | 8 ± 1.5 | 25.2 ± 7.91 | 5.2 ± 1.89 | – | – | Cc1[nH]nc2c1C(c1ccccc1)C(C#N)=C(N)N2 (stereo not drawn) [4a] | > 100 | 0.69 ± 0.04 T. Eq. | > 100 | 72.1 ± 5.8% | –
13 | CNS+ | 4.8 ± 2.6 | 22.8 ± 6.68 | 5.7 ± 0.62 | 2.14 ± 1.1 | 1.5 | Cc1[nH]nc2c1C(c1ccc(F)cc1)C(C#N)=C(N)N2 (stereo not drawn) [4b] | > 100 | 1.86 T. Eq. and 1.86 ± 0.08 T. Eq. | > 100 | 48.5 ± 7.6% | percentage of protection, R/O toxicity [8]: 62.7%; percentage of survival, R/O toxicity [8]: 84.3%
14 | CNS+ | 11.8 ± 3 | 22.8 ± 4.63 | 0.78 ± 1.98 | 1.05 ± 0.3 | 0.74 | Cc1[nH]nc2c1C(c1cccc(Cl)c1)C(C#N)=C(N)N2 (stereo not drawn) [4d] | > 100 | 0.63 T. Eq. and 0.63 ± 0.09 T. Eq. | > 100 | 76.0 ± 6.5% | percentage of protection, R/O toxicity [8]: 32.0%; percentage of survival, R/O toxicity [8]: 72.3%; survival percentage, high K+ toxicity [10]: 61.4%
15 | CNS+ | 10.1 ± 5.4 | 21.6 ± 3.99 | 10.1 ± 0.72 | 0.83 ± 0.3 | 0.58 | Cc1[nH]nc2c1C(c1ccccc1Br)C(C#N)=C(N)N2 (stereo not drawn) [4f] | > 100 | 1.00 ± 0.16 T. Eq. | > 100 | 7.39% and 7.39 ± 2.0% | percentage of protection, okadaic acid toxicity [9]: over 50%
16 | CNS± | 3.1 ± 1 | 23.2 ± 4.31 | 6.1 ± 1.84 | 3.09 ± 0.4 | 2.17 | Cc1[nH]nc2c1C(c1ccc([N+](=O)[O-])cc1)C(C#N)=C(N)N2 (stereo not drawn) [4i] | > 100 | 0.96 ± 0.05 T. Eq. | > 100 | 73.2 ± 2.9% | –
17 | CNS- | 0.7 ± 0.9 | 17.1 ± 2.18 | 22.3 ± 3.42 | 4.53 ± 2.1 | 3.18 | Cc1[nH]nc2c1C(c1cccnc1)C(C#N)=C(N)N2 (stereo not drawn) [4k] | > 100 | 1.03 ± 0.16 T. Eq. | > 100 | 85.6% and 85.6 ± 5.3% | percentage of protection, okadaic acid toxicity [9]: over 50%
18 | CNS+ | 5 ± 2.9 | 22.9 ± 4.23 | 15.6 ± 3.35 | 10.2 ± 3.2 | 7.14 | Cc1[nH]nc2c1C(c1ccncc1)C(C#N)=C(N)N2 (stereo not drawn) [4l] | > 100 | 1.1 T. Eq. and 1.10 ± 0.13 T. Eq. | > 100 | 68.9 ± 4.5% | percentage of protection, R/O toxicity [8]: 71.6%; survival percentage, high K+ toxicity [10]: 78.9%; percentage of protection, okadaic acid toxicity [9]: over 50%
